Reference: patent US6537545B1, “Use of corneal hardening agents in enzymeorthokeratology” (ISTA Pharmaceuticals, Inc., priority 1998, dated 2003)

Tests used:
[1] = tested on: eye of myopic human patient; assay: Safety and efficacy of hyaluronidase and topical 3% glyceraldehyde solution, myopia in a human patient (Example 8); type: in vivo; conditions: 50 IU hyaluronidase, lenses, 3% glyceraldehyde drops 15 days; monitored 196 days
Experimental: In this study, a single subject was selected to test the safety and efficacy of using hyaluronidase and a glyceraldehyde solution to treat sub-optimal visual acuity. In this study, the subject was first medically evaluated and a baseline was established. A medical history of the subject was taken and a detailed examination of the subject's eyes was also performed. The subject's eyes were tested to determine: refraction, cell count, intraocular pressure (IOP), pachymetry, corneal topography and corneal elasticity. A slit-lamp examination was also performed to establish the health of the eyes. Also, the presence of any general or ocular discomfort of the subject was noted.
Following the establishment of a baseline reading (UVA 20/300), the subject was administered a single intrastromal injection of 50 IU hyaluronidase prior to the orthokeratology treatment. Following 7 days of incubation of the subject's eyes with the injected material, the subject was fitted with corrective contact lenses for overnight wear. The subject wore the corrective lenses day and night for a period of seven (7) days. At this point the subject's visual acuity was 20/15. […] The visual acuity of the subject was then monitored for 196 days to determine the effect of the treatment on the unaided visual acuity of the subject;

[2] = tested on: Dutch Belted rabbit corneas; assay: Safety of glyceraldehyde in rabbits, slit lamp examination scores (Example 1); type: in vivo; conditions: 500 IU hyaluronidase day 1, 3% glyceraldehyde 20 μL intrastromal day 8, then 1 drop three times a day, 50 days, control BSS
From the text: In this Example, the safety of treating Dutch Belted rabbit corneas with glyceraldehyde following administration of the corneal softening enzyme hyaluronidase was investigated. This study involved the use of five (5) pigmented Dutch Belted rabbits, two (2) in the control group and three (3) in the glyceraldehyde treated group.
All rabbits received a thorough slit lamp examination on the first day of the study to establish the baseline using the following technique. A Nikon FS-2 Slit Lamp was used for the examinations of the test animals. For each animal examined, the eyes were dilated by instilling one drop of 1.0% tropicamide (Bausch and Lomb, Tampa, Fla.) and 2.5% phenylephrine (Bausch and Lomb, Tampa, Fla.). The animal was then positioned in front of a slit lamp. The corneas of each animal were examined for edema and the surface area involved with edema was estimated. The anterior chambers of the animals were closely examined for chamber depth, aqueous cell and flare, and fibrin. The iris of each animal was examined for atrophy, symmetry, or synechiae. The lens was examined and cellular debris, capsule, or lens protein abnormalities were noted if present. The vitreous humor of each animal were then examined for the presence of cells or other abnormnalities. […]

O=CC(O)CO (centres unmarked) [glyceraldehyde]
duration of correction of unaided visual acuity [1]: more than six months | clinical observations (slit lamp scores), statistical analysis vs control group [2]: no differences between the groups
